# In publication PMC11002716 (ACS chemical biology, 2022):
# Ends that are not written are not given here.
# How the values were obtained:
# [1] = tested on: Gs signaling (β2–adrenergic receptor, AC); assay: Cell-free ELISA-based cAMP assay on NG108–15 membrane preparations; format: biochemical
# [2] = tested on: Gi signaling (δ–opioid receptor, AC); assay: as above; format: biochemical; conditions: Fsk+DADLE
# [3] = tested on: HEK293 cells overexpressing the SNAP-β2 adrenergic receptor (Gs signaling pathway); assay: Whole-cell Iso-induced cAMP accumulation assay; format: cell-based
# [4] = biological target: fluorescein-labeled KB-752; assay: MST
# Gαi1·GDP = Gαi1·GDP (UniProt P63096 2-354); assay: MST
# Gαi1·GDP (UniProt P63096 2-354), sequence (P63096 2-354): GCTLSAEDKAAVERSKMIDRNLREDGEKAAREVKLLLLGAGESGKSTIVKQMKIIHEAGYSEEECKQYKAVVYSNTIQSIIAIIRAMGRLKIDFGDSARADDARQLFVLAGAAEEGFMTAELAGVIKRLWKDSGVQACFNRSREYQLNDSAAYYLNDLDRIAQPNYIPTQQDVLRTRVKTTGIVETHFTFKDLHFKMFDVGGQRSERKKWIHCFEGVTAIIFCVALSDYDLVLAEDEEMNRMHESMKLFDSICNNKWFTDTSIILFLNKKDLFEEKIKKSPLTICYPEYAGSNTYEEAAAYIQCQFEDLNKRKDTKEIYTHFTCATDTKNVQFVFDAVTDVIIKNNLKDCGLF
# Gαi1·GDP (from UniProt P63096 2-354) (natural protein), sequence (P63096 2-354): as above
molecule,measurement,setting,value
SRVTWYDFLMEDTKSR-OH [KB–752],effect on Gs signaling / functional regulation of Gαs in cell-free ELISA,[1],inhibit Gs signaling
same,effect on DADLE-mediated inhibition of the AC activity,[2],no effect
same,effect on Gαs in the whole cell assay,[3],no effect
Gαi1·GDP (from UniProt P63096 2-354) (natural protein),Kd,[4],345 nM
"{5(6)‑carboxyfluorescein}-RWLRALRYP [GPM-1 Y5A, fluorescein-labeled]",Kd,Gαi1·GDP,285 ± 40 nM
